From patent EP2958933B1, “CROSSLINKED PEPTIDE HYDROGELS” (Agency for Science, Technology and Research, priority 2013, dated 2018)
Peptide text beside a SMILES is read from it.

Tests used:
[1] = Concentration dependence of self-assembly (aggregates, fibers); type: physicochemical
Text: An amphiphilic linear sequence of an amphiphilic peptide and/or peptoid disclosed herein, including an amphiphilic linear peptide and/or peptoid, is capable of providing a self assembling α-helical fiber in aqueous solution under physiological conditions. The peptides/peptoids (typically 3-7-mers) in the L- or D-form can self assemble into supramolecular helical fibers which are organized into mesh-like structures mimicking biological substances such as collagen. It has previously been observed in X-ray crystallography that peptides of a length of 3 to 6 amino acids with repetitive alanine containing sequences and an acetylated […] take a helical conformation (Hatakeyama, Y, et al, Angew. Chem. Int. Ed. (2009) 8695-8698). Using peptides with an amphiphilic sequence disclosed herein, Ac-LD6 (L), the formation of aggregates has for example been observed already at 0.1 mg/ml. […] With a formation of fibers occurring under physiological conditions at concentrations below 2 mM a peptide/peptoid disclosed herein is well suited as an injectable hydrogel material that can form a hydrogel under physiological conditions. Also disclosed herein is an amphiphilic linear peptide and/or peptoid as defined above for tissue engineering as well as to a tissue engineering method that involves applying, including injecting a respective amphiphilic linear peptide and/or peptoid.

[2] = Oscillation rheology of casted crosslinkable gels (frequency and amplitude sweep); type: physicochemical; conditions: for gel stiffness on LK6-doping: final concentration 12 mM, cast-and-soak 0.06% H2O2 two hours; for stiffness after water soak: without oxidation
Method: Peptide was dissolved in 200 µL of water +/- H2O2 and filled into custom-made hollow ring casts (diameter ∼1 cm). The ring ends were sealed with parafilm to minimise evaporation and the cast was kept at 25°C for 22 hours before further manipulations.
(§1) Rheology: The rheological properties of casted gels were measured with an ARES-G2 (TA Instruments, USA) using the oscillation method. Frequency-sweep studies were performed with ω=0-100 rad/s at strain, γ=0.1%. The gel stiffness was represented by plotting G' against ω. Amplitude-sweep studies were performed beforehand at 1 Hz with γ=0-100%. The LVE limit of the gel was defined as the value of γ when G' first dropped below 90% of the average initial value.
as §1, with “The” for “Rheology: The”

[3] = Water soak of casted gels (resistance to degradation, shape retention); type: physicochemical; conditions: non-oxidised gels, 24 hours of water soak
[4] = Determination of a suitable gelation concentration; type: physicochemical; conditions: for working concentration at which gels are formed: gels with sufficient mechanical integrity to withstand handling / gel formation
Text: Reference is now made to the figures, wherein: • Figures 1A to 1M represent a sorted list of some exemplary peptides capable of forming hydrogels. These peptides are examples in which the entire peptide consists of a single linear amphiphilic sequence. Peptides which are forming hydrogels are named with a short code, but their individual sequence is disclosed. The peptides of these examples consist of a sequence of natural amino acids containing 3 to 7 amino acids. The N-terminus is acetylated which removes the charge that would otherwise restrain the amphiphilic character of the peptides. • Figure 2 depicts gelation pictures for peptide based hydrogels at lowest concentrations. • Figure 3 depicts gelation pictures for Ac-AS-6 (Ac-AIVAGS) (L) at concentrations of 5 mg/ml, 10 mg/ml, 15 mg/ml. • Figure 4 depicts a hypothesis of self-assembly from peptide monomers to supramolecular network of condensed fibers. (A) Assembly is believed to initiate with antiparallel pairing of two peptide monomers by changing to α-helical conformations. Subsequently, peptide pairs assemble to fibers and nanostructures. Condensation of peptide fibers to fiber aggregates results in hydrogel formation. • Figure 5 depicts environmental scanning electron microscopy (ESEM) images of hydrogels of Ac-LD6 (Ac-LIVAGD) (L) (10 mg/ml), where Fig. 5A, Fig. 5B and Fig. 5C are images obtained at magnification of 260X, 1000X, 2000X, 2400X, 4000X at a temperature of 4 °C with HV at 10KV. […] 8A), and 450 X (fig. […] (a) A honeycomb porous structure is observed following lyophilization of 20 mg/mL Ac-AD6 (Ac-AIVAGD) (D) hydrogel. The pores are bounded by membranes of condensed fibers as shown in close-up views of 15 mg/mL (b) and 20 mg/mL (c) Ac-ID3 (Ac-IVD) (L) hydrogels. […] Heating the samples to facilitate gelation increased the β type aggregation. […] (e) Far-UV CD spectra of AcID3 (Ac-IVD) at different concentrations. […] (a, b) The high mechanical strengths of different peptide hydrogels at 20 mg/mL concentration was determined by measuring storage moduli (G') as a function of angular frequency under 0.1% strain, at 25°C and 50°C respectively. […] (c) Mechanical strength is a function of concentration, as determined from oscillatory frequency sweep studies using Ac-LD6 (Ac-LIVAGD) (L) under 0.1% strain at 25°C. […] LK6 gels were therefore casted at different concentrations and their stiffness was measured (average ± s.d. of triplicates). As expected, G' values increased with peptide concentration and it was determined that a working concentration of 12 mM afforded gels with sufficient mechanical integrity to withstand handling. […]

skins of guinea pigs = experiment: Direct contact Kligman maximization test (GLP, ISO 10993-10); type: in vivo
V79 = experiment: Direct contact V79 colony assay (GLP); type: cell-based
HepG2 cells [5] = experiment: 3D cell culture on gels, calcein live-cell staining; type: cell-based; conditions: purified gels conjugated with different concentrations of RGD, after four days
Method: LK6C +/- CRGD gels were casted directly into 8-chamber Lab-Tek® wells (Nunc, NY, USA) and purified as reported in the SI. 0.5 mL of cell suspension in regular completed DMEM (Invitrogen, Singapore) was either seeded onto the gel or directly into the well (2D control) and incubated for four days. 0.5 µL of calcein-AM (Invitrogen) was then added to the media to identify live cells and images were captured using a confocal microscope (LSM5 DUO, Carl Zeiss, Germany). Beforehand, calcein-AM was verified to stain only live cells as ethanol- and H2O2-treated cells excluded the dye. All images, except for the 2D controls, were presented as mergers of several z-stacks. To further verify the 3D distribution of cells, the gel was embedded vertically in Jung Tissue Freezing Medium (Leica Instruments GmbH, Germany) and 20 µm cross-sectional slices were obtained with a cryostat (CM3050 S, Leica). Sections were mounted with coverslips and imaged as above.
To test for biocompatibility, HepG2 cells were either seeded directly into wells (2D control) or onto purified LK6C gels conjugated with different concentrations of RGD. […] This was repeated with primary rabbit fibroblasts (Figure 35), 3T3 murine fibroblasts (Figure 38) and NIH-3T3 murine fibroblasts (data not shown), confirming the biocompatibility of the gels. With regular media changes, cells remained viable for at least 3 weeks (Figure 38). […]

[6] = system: Fibroblasts isolated from the cornea/sclera of New Zealand White rabbits; experiment: 3D primary cell culture on gels, calcein live-cell staining; type: cell-based; conditions: purified gels +/- various concentrations of CRGD, four days
Text: (§2) Reference is now made to the figures, wherein: • Figures 1A to 1M represent a sorted list of some exemplary peptides capable of forming hydrogels. These peptides are examples in which the entire peptide consists of a single linear amphiphilic sequence. Peptides which are forming hydrogels are named with a short code, but their individual sequence is disclosed. The peptides of these examples consist of a sequence of natural amino acids containing 3 to 7 amino acids. […] (a, b) The high mechanical strengths of different peptide hydrogels at 20 mg/mL concentration was determined by measuring storage moduli (G') as a function of angular frequency under 0.1% strain, at 25°C and 50°C respectively. […] (c) Mechanical strength is a function of concentration, as determined from oscillatory frequency sweep studies using Ac-LD6 (Ac-LIVAGD) (L) under 0.1% strain at 25°C. […] LK6 gels were therefore casted at different concentrations and their stiffness was measured (average ± s.d. of triplicates). As expected, G' values increased with peptide concentration and it was determined that a working concentration of 12 mM afforded gels with sufficient mechanical integrity to withstand handling. […]

HepG2 cells [7] = experiment: Quantification of cell-spread area (ImageJ); type: cell-based; conditions: gel culture in the presence or absence of RGD
Text: Confocal images after calcein staining were processed using ImageJ (NIH, USA) to obtain the average cell-spread area under various culture conditions. For cells in 3D gel culture, images used for quantification were mergers of several z-stacks to capture the maximum cell-spread area. In all cases, at least three independent experiments with at least two locations selected from each culture were used for averaging.

[8] = system: Fibroblasts isolated from the cornea/sclera of New Zealand White rabbits; experiment: Quantification of cell-spread area (ImageJ); type: cell-based; conditions: various gel cultures, ANOVA p<0.05
Text: as §2

| Molecule | concentration at which formation of aggregates is observed [1] [µg/mL] | concentration at which peptide monomers align to form fibrous structures [1] [µg/mL] | gel stiffness on LK6-doping [2] | gel degradation after water soak [3] | material needed for gelation [4] [mg/mL] | working concentration at which gels are formed [4] [mM] | shape and stiffness after water soak ([2]; 12 mM gel, 2 or 24 hours cast-and-soak or 22 hours in situ oxidation with 0.06% H2O2, up to four days of water soak) | stiffness after water soak ([2]; 12 mM gel, 24 hours of water soak) | stiffness after water soak ([2]; 12 mM gel, two hours of water soak) | stiffness (G') following oxidation ([2]; compared to non-oxidised gels, different oxidation regimes) | linear viscoelastic (LVE) limit (elasticity), increase following oxidation ([2]; oxidised vs non-oxidised gels, cast-and-soak 2-24 hours 0.06% H2O2 or in situ 24 hours 0.03-0.1% H2O2) | sensitization (skins of guinea pigs) | toxicity (V79) | cell viability (calcein staining) (HepG2 cells [5]) | cell viability (calcein staining) [6] | cell spreading vs regular 2D culture (HepG2 cells [7]) | cell-spread area vs 2D culture [8] |
| --- | --- | --- | --- | --- | --- | --- | --- | --- | --- | --- | --- | --- | --- | --- | --- | --- | --- |
| CC[C@H](C)[C@H](NC(=O)[C@H](CC(C)C)NC(C)=O)C(=O)N[C@H](C(=O)N[C@@H](C)C(=O)NCC(=O)N[C@@H](CC(=O)O)C(=O)O)C(C)C [Ac-LD6 (L), Ac-LIVAGD-COOH] (Ac-LIVAGD-OH) | 100 | 1000 |  |  |  |  |  |  |  |  |  |  |  |  |  |  |  |
| LIVAGK [LK6] |  |  | relatively stiff | completely degraded | 25 | 12 |  |  |  |  |  |  |  |  |  |  |  |
| LIVAGKC [LK6C, cross-linkable peptide, LK6 modified with a cysteine residue at the C-terminus; forms hydrogels] |  |  | relatively stiff |  | 10 | 12 | maintained their shapes and in fact, became stiffer | broke down and lost their stiffness | could maintain their stiffness | either maintained or increased | 2.4-3.8 fold | no sensitization | no significant toxicity | viable | viable fibroblasts were seen in all cases | insignificant effects (p>0.05) | spreaded more in 2D culture compared to those in the various gel cultures |
